Results reported in the METLIN SMRT retention time set (Domingo-Almenara et al. 2019).

Experiment: gradient 5% acetonitrile 3 min, to 50% in 2 min, to 85% in 15 min, held 3 min, 100 µL/min
Settings: column: Zorbax Extend-C18 2.1 x 50 mm; eluents: water / acetonitrile, 0.1% formic acid
Summary of the method: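 Each retention time is based on an adduct peak selected computationally and verified by manual inspection. Measurements used HPLC–quadrupole time-of-flight mass spectrometry in positive and negative ionization mode on mixtures of ~100 pure standards. Chromatography ran on a Zorbax Extend-C18 column (2.1 × 50 mm, 1.8 μm) at 100 μL/min with water and acetonitrile, each containing 0.1% formic acid, and dead and dwell volumes of 40 μL and 900 μL.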

Structure (SMILES)	RP-LC retention time [s]
Cc1ccc(CN2CCCN(CC(=O)NC(C)CCc3ccccc3)S2(=O)=O)cc1 (centres undefined)	1050
N#Cc1ccc(S(=O)(=O)N2CCCN(S(=O)(=O)c3ccccc3)CCC(=O)NCC2)cc1	797
Cc1ccc(N2CCC(NC(=O)c3ccc(C)s3)C2=O)cc1 (centres undefined)	842
O=c1c2sccc2n(Cc2nc(-c3ccccc3)no2)c(=O)n1-c1ccccc1	932
CC(C)Oc1ccc(-c2noc(Cn3ncn4nc(-c5ccc(F)cc5)cc4c3=O)n2)cc1	1210
CCc1ccc(-c2noc(Cn3cnc4c(cnn4-c4ccc(OC)cc4)c3=O)n2)cc1	1130
Cc1nc(Nc2ccc(NC(=O)COc3ccc(Cl)cc3)cc2)cc(-n2ccnc2)n1	646
O=C1NC(c2cccc3ccccc23)Nc2ccccc21 (centres undefined)	776
O=C(CN1C(=O)C(C(=O)N2CCCC2)Sc2ccccc21)NCCc1ccccc1 (centres undefined)	898
CCCSCCCNC(=O)C1CCCN(c2nc3ccccc3n(Cc3ccccc3)c2=O)C1 (centres undefined)	1200
Cc1nnc(-c2ccc3ccn(CC(=O)NC4CCCCCC4)c3c2)o1	813
COCC(C)(O)CNC(=O)c1cc(Cl)ccc1Cl (centres undefined)	657
O=C([C@@H]1C[C@H](F)CN1C(=O)c1ccco1)N1CCCCC1	626
O=C(c1ccc2c(c1)CCC(=O)N2Cc1ccccc1)N1CCN(c2ccc(F)cc2)CC1	923
O=C(NCc1cccs1)C1CCN(c2cnc(N3CCCCCC3)nc2)CC1	732
COc1ccc(NC(=O)N2CCC3(C2)C(=O)Nc2ccc(OC)cc23)c(OC)c1 (centres undefined)	715
C=CCN1CC[C@@]2(C)c3cc(O)ccc3CC1[C@@H]2C	644
CCOC(=O)c1c(C)[nH]c(C(=O)N2CCC(C(C)C(=O)NCc3ccc(OCC)cc3)CC2)c1C (centres undefined)	860
O=C(Cn1cccc(-c2nc(-c3ccc(Cl)cc3)no2)c1=O)N1CCCCC1	855
C[C@H]1CN(C(=O)C2(c3ccccc3)CC2)C[C@@H]1c1nc(-c2cccnc2)no1	827
Cc1csc(-c2cc(S(=O)(=O)NCCC3=CCCCC3)cn2CC(=O)N2CCCC2)n1	1030
COc1ccc(OC)c(NC(=O)c2[nH]c(C)c(S(=O)(=O)N3CCCCC3)c2C)c1	1020
Cn1nc(-c2ccccc2)nc1C1CN(C(=O)Nc2ccccc2C(F)(F)F)C1	807
O=C(N1CCC(c2nc(C3CCOCC3)no2)CC1)C1(c2ccccc2)CC1	817
COc1ccc(N2CCN(c3nccc4ccc(C(=O)NC5CCCC5)cc34)CC2)cc1	734

Structure (SMILES)	RP-LC retention time [s]
CCCNC(=O)CCC1CCN(c2cc(NCCC)ncn2)CC1	606
O=C(NCCCN1CCOCC1)C1CCCN(c2ncnc3c2nc2n3CCCCC2)C1 (centres undefined)	580
Cc1ccc(-n2cc(C3=CCN(CC(=O)N4CCN(c5ccccn5)CC4)CC3)cn2)cc1	584
O=C(Cn1ccn2nc(-c3ccc(F)cc3)c(CO)c2c1=O)Nc1ccc(Br)cc1	891
CC(=O)NCc1csc(C2CCN(C(=O)c3cc(F)ccc3F)CC2)n1	652
CCC(=O)NCCc1csc(C2CCCN(C(=O)CC)C2)n1 (centres undefined)	591
Cc1cc(Cl)ccc1NC(=O)N1C[C@@H](F)C[C@H]1C(=O)N1CCc2ccccc2C1	908
N#Cc1ccccc1-c1cc(-c2ccccn2)cn(-c2ccccc2)c1=O	941
CC(C)c1csc(-c2csc(S(=O)(=O)NC3CCCCC3)c2)n1	1180
CCC(C)NC(=O)C1CCN(c2cnc(N3CCCCC3)nc2)CC1 (centres undefined)	686
CCCC(=O)N1CCCN(C2=NS(=O)(=O)C(c3ccccc3)=C2C)CC1	740
COC(=O)c1ccc2c(=O)n(-c3ccc(Cl)cc3)c(N3CCC(C(N)=O)CC3)nc2c1	754
COc1ccccc1Nc1c(-c2ccc(N3CCOCC3)cc2)nc2cnccn12	806
CN(C)C[C@@H]1CN(Cc2cccnc2)C[C@H]1NC(=O)C1(c2ccccc2)CC1	557
CCc1ccc(Nc2nc(C(=O)NC3CCCC3)nc3ccccc23)cc1	934
CC(NC(=O)c1ccco1)c1nc2ccccc2n1CC(=O)N1CCCC1 (centres undefined)	614
O=C(NCCC1CCN(C(=O)Nc2cc(F)cc(F)c2)CC1)c1ccoc1	798
COc1ccc(-c2nc3cnccn3c2Nc2cc(C)cc(C)c2)cc1OC	874
Cn1nc2n(c1=O)CCN(C(=O)C1CC=CCC1)CC2 (centres undefined)	624
COc1cc(OC)cc(N2C=C(C#N)S(=O)(=O)c3ccc(C)cc32)c1	948
O=C(CCC1CCN(c2cc(NC3CC3)ncn2)CC1)NCc1ccc(F)cc1F	684
CC1CCN(S(=O)(=O)c2ccc(-c3nnc(C(=O)N4CCC5(CC4)OCCO5)o3)cc2)CC1	952
Cn1c(C(=O)N2CCN(c3ccccc3)CC2)cc2c(=O)oc3ccccc3c21	905
COc1ccc(OC)c(NC(=O)N2CCCC(C)(C(=O)NCc3ccc(C)cc3)C2)c1 (centres undefined)	932

The next lines start with the values.

RP-LC retention time [s]	Structure (SMILES)
860	CCn1c(C(=O)NCCc2ccc(S(N)(=O)=O)cc2)cc2sc(Cl)cc21
754	Cc1ccc(-n2nc3c(N4CCCC(C(=O)NCc5ccccc5)C4)nnc(C)c3c2C)cc1 (centres undefined)
754	Cc1nc(CC(=O)Nc2ccc(F)c(F)c2)cs1
875	CN(C)c1ccc(-c2noc(CCC(=O)Nc3ccc4c(c3)OCCO4)n2)cc1
763	Cc1ccc(NS(=O)(=O)c2ccc3c(c2)CCCC(=O)N3)cc1F
690	COc1ccc(NC(=O)N2CCC(n3c(-c4ccco4)nc4cccnc43)C2)cc1F (centres undefined)
568	CC(C)c1cc(=O)n(CC(=O)Nc2cccc(-c3cn4c(n3)SCC4)c2)cn1
876	Cc1ccc(C(=O)Nc2ccc3c(c2)Sc2ncccc2C(=O)N3C)cc1C
653	Cc1cc(C)nc(NS(=O)(=O)c2ccc(NC(=O)c3c(F)cccc3F)cc2)n1
726	CCC(C)C(NC(=O)c1cccc(OC)c1)C(=O)Nc1nc2ccccc2[nH]1 (centres undefined)
1250	Cc1cccc(-c2nc(-c3ccc4c(c3)oc(=O)n4C(C)C)no2)c1
762	COc1ccc(-c2nnc(SCc3cc(=O)n4c(C)csc4n3)o2)cc1OC
722	Cc1c(-c2noc(C(=O)NCCCN3CCCC(C)C3)n2)oc2ccccc12 (centres undefined)
833	Cc1oc(-c2[nH]ncc2C(=O)N(C)C)cc1S(=O)(=O)NCc1ccccn1
633	CCOCCCNC(=O)C1CCN(c2ncnc3c2oc2ccccc23)CC1
673	Cc1ccc2ncn3c(=O)n(CC(=O)Nc4ccc5c(c4)OCO5)nc3c2c1
988	CC(C)Cn1cc(S(=O)(=O)Nc2ccc(Cl)cc2)c2cccnc21
630	CCOc1ccc(NC(=O)Cn2c(N)nc(CC)cc2=O)cc1
607	CCOC(=O)c1ccc2nc(C)cc(NC(=O)c3cccs3)c2c1
860	CCC(CC)C(=O)NCCc1c[nH]c2ccc(C)cc12

RP-LC retention time [s]	Structure (SMILES)
902	Cc1c(C(=O)C(=O)N2CCc3ccccc32)c2ccccc2n1C
627	Cc1nc(NCCNC(=O)c2snnc2C)cc(-n2cccn2)n1
738	Cc1oc(-c2[nH]ncc2C(=O)N2CCCCC2)cc1S(=O)(=O)Nc1ccc(F)cc1
738	O=C(NCc1ccccc1)N1CCN(c2ncccc2-c2nnc(C3CC3)o2)CC1
847	CCc1cccc(N2C(=O)CN(S(C)(=O)=O)CC2(C)C(=O)NCc2ccc(F)cc2)c1 (centres undefined)
898	COc1cccc(NC(=O)Nc2nccn(-c3ccc(F)cc3)c2=O)c1
729	CN1C(=O)Cc2ccccc2C1C(=O)NCc1cccc(F)c1 (centres undefined)
737	O=C(NCCCn1nc(-c2ccco2)ccc1=O)c1cc(Cl)ccc1Cl
863	Cc1cc(=O)n(CC(=O)Nc2ccccc2Cl)c(N2CCOCC2)n1
761	CC(C)N1CCn2c(nc3cc(C(=O)NCc4ccc(Br)cc4)ccc32)C1=O
944	Cc1ccc(-c2ccnc(SCC(=O)NCc3ccccc3)n2)cc1C
760	CCOC(=O)C(CC)Oc1cc(O)c2c(=O)cc(-c3ccccc3)oc2c1 (centres undefined)
1090	CCc1nc(-c2csc(S(=O)(=O)N3CCCC(C(=O)Nc4cc(C)ccc4C)C3)c2)no1 (centres undefined)
946	CC(C)CN1C(=O)CCc2cc(NS(=O)(=O)c3ccc(Cl)cc3)ccc21
1280	CCCN1C(=O)COc2ccc(-c3noc(-c4ccccc4Br)n3)cc21
730	Cc1ccc(NC(=O)Cn2cnc3nc(N4CCCC(C(=O)NC(C)C)C4)sc3c2=O)cc1C (centres undefined)
643	Cc1oc2c(c1C(=O)Nc1cccc(Br)c1)C1=NCCN1C=N2
623	CN(C)C(=O)c1n[nH]c2c1CN(C(=O)c1ccccc1Br)CC2
668	COc1ccc(NC(=O)Nc2ccc(C)n(CC(=O)O)c2=O)cc1
618	CCCn1nc(C)cc1CN(C)c1ccc(NC(=O)CC)cc1C(=O)O
